In ChEMBL document CHEMBL1144805, “The cephalostatin way of apoptosis” (2008):

How the values were obtained:
HT-29 = experiment: Cytotoxicity against human HT29 cells; type: functional
SNB-75 = experiment: Cytotoxicity against human SNB75 cells; type: functional
SR = experiment: Cytotoxicity against human SR cells; type: functional
[1] = Cytotoxicity against human TK20 cells; type: functional
SNB-19 = experiment: Cytotoxicity against human SNB19 cells; type: functional
Hs-578T = experiment: Cytotoxicity against human HS578T cells; type: functional
SW-620 = experiment: Cytotoxicity against human SW620 cells; type: functional
NCI-H460 = experiment: Cytotoxicity against human NCI-H460 cells; type: functional
HOP-62 = experiment: Cytotoxicity against human HOP62 cells; type: functional
NCI-H322M = experiment: Cytotoxicity against human NCI-H322M cells; type: functional
PC-3 = experiment: Cytotoxicity against human PC3 cells; type: functional
KM-20L2 = experiment: Cytotoxicity against human KM20L2 cells; type: functional
[2] = Cytotoxicity against human LXFL529 cells; type: functional; details: LXFL 529
[3] = Cytotoxicity against human 786-O cells; type: functional; details: 786-0
NCI-H23 = experiment: Cytotoxicity against human NCI-H23 cells; type: functional
CCRF-CEM = experiment: Cytotoxicity against human CCRF-CEM cells; type: functional
SK-OV-3 = experiment: Cytotoxicity against human SK-OV-3 cells; type: functional
EKVX = experiment: Cytotoxicity against human EKVX cells; type: functional
MOLT-4 = experiment: Cytotoxicity against human MOLT4 cells; type: functional
ACHN = experiment: Cytotoxicity against human ACHN cells; type: functional
NCI-H226 = experiment: Cytotoxicity against human NCI-H226 cells; type: functional
UO-31 = experiment: Cytotoxicity against human UO31 cells; type: functional
KM12 = experiment: Cytotoxicity against human KM12 cells; type: functional
IGROV-1 = experiment: Cytotoxicity against human IGROV1 cells; type: functional
UACC-257 = experiment: Cytotoxicity against human UACC257 cells; type: functional
SF-295 = experiment: Cytotoxicity against human SF295 cells; type: functional
U-251 = experiment: Cytotoxicity against human U251 cells; type: functional
HCT-116 = experiment: Cytotoxicity against human HCT116 cells; type: functional
OVCAR-5 = experiment: Cytotoxicity against human OVCAR5 cells; type: functional
[4] = Cytotoxicity against human HL60(TB) cells; type: functional, HL-60(TB); details: HL-60
SN12C = experiment: Cytotoxicity against human SN12C cells; type: functional
MDA-N = experiment: Cytotoxicity against human MDAN cells; type: functional
OVCAR-4 = experiment: Cytotoxicity against human OVCAR4 cells; type: functional
M14 = experiment: Cytotoxicity against human M14 cells; type: functional
SK-MEL-28 = experiment: Cytotoxicity against human SK-MEL-28 cells; type: functional
Malme-3M = experiment: Cytotoxicity against human MALME3M cells; type: functional
MDA-MB-231 = experiment: Cytotoxicity against human MDA-MB-231 cells; type: functional
T47D = experiment: Cytotoxicity against human T47D cells; type: functional
SF-268 = experiment: Cytotoxicity against human SF268 cells; type: functional
HOP-92 = experiment: Cytotoxicity against human HOP92 cells; type: functional
CAKI-1 = experiment: Cytotoxicity against human CAKI1 cells; type: functional
XF498 = experiment: Cytotoxicity against human XF498 cells; type: functional
SK-MEL-5 = experiment: Cytotoxicity against human SK-MEL-5 cells; type: functional
M19-MEL = experiment: Cytotoxicity against human M19-MEL cells; type: functional
A549 = experiment: Cytotoxicity against human A549 cells; type: functional
LOX IMVI = experiment: Cytotoxicity against human LOXIMVI cells; type: functional
NCI-H522 = experiment: Cytotoxicity against human NCI-H522 cells; type: functional
MDA-MB-435 = experiment: Cytotoxicity against human MDA-MB-435 cells; type: functional
K562 = experiment: Cytotoxicity against human K562 cells; type: functional
SK-MEL-2 = experiment: Cytotoxicity against human SK-MEL-2 cells; type: functional
COLO 205 = experiment: Cytotoxicity against human COLO205 cells; type: functional
HOP-18 = experiment: Cytotoxicity against human HOP18 cells; type: functional
OVCAR-8 = experiment: Cytotoxicity against human OVCAR8 cells; type: functional
BT-549 = experiment: Cytotoxicity against human BT549 cells; type: functional
HCT-15 = experiment: Cytotoxicity against human HCT15 cells; type: functional
SNB-78 = experiment: Cytotoxicity against human SNB78 cells; type: functional
[5] = Cytotoxicity against human RXF631 cells; type: functional; details: RXF 631
NCI/ADR-RES = experiment: Cytotoxicity against human NCI/ADR-RES cells; type: functional
[6] = Cytotoxicity against human DMS144 cells; type: functional
[7] = Cytotoxicity against human HCC2996 cells; type: functional
MCF7 = experiment: Cytotoxicity against human MCF7 cells; type: functional
DLD-1 = experiment: Cytotoxicity against human DLD1 cells; type: functional
RPMI-8226 = experiment: Cytotoxicity against human RPMI8226 cells; type: functional
DMS-273 = experiment: Cytotoxicity against human DMS273 cells; type: functional
RXF 393 = experiment: Cytotoxicity against human RXF393 cells; type: functional
SF-539 = experiment: Cytotoxicity against human SF539 cells; type: functional
UACC-62 = experiment: Cytotoxicity against human UACC62 cells; type: functional
[8] = Cytotoxicity against human […] cells; type: functional
DU-145 = experiment: Cytotoxicity against human DU145 cells; type: functional
OVCAR-3 = experiment: Cytotoxicity against human OVCAR-3 cells; type: functional

## C[C@@H]1[C@]2(O[C@H]3C=C4[C@@H]5CC[C@H]6Cc7nc8c(nc7C[C@]6(C)[C@H]5C[C@@H](O)[C@]4(C)[C@]31O)C[C@@H]1CC[C@H]3C4=CC[C@@H]5[C@H](C)[C@@]6(OC[C@]45C(=O)C[C@@H]3[C@@]1(C)C8)OC(C)(C)C[C@H]6O)O[C@](C)(CO)C[C@H]2O [CEPHALOSTATIN 1]
HT-29
  GI50: 2.82 nM
SNB-75
  GI50: 0.1 nM
SR
  GI50: 0.209 nM
[1]
  GI50: 33.9 nM
SNB-19
  GI50: 4.57 nM
Hs-578T
  GI50: 0.112 nM
SW-620
  GI50: 0.977 nM
NCI-H460
  GI50: 0.269 nM
HOP-62
  GI50: 0.24 nM
NCI-H322M
  GI50: 91.2 nM
PC-3
  GI50: 0.288 nM
KM-20L2
  GI50: 1.2 nM
[2]
  GI50: 0.331 nM
[3]
  GI50: 0.17 nM
NCI-H23
  GI50: 550 nM
CCRF-CEM
  GI50: 0.309 nM
SK-OV-3
  GI50: 1.02 nM
EKVX
  GI50: 5.37 nM
MOLT-4
  GI50: 0.204 nM
ACHN
  GI50: 8.13 nM
NCI-H226
  GI50: 275 nM
UO-31
  GI50: 0.617 nM
KM12
  GI50: 1.86 nM
IGROV-1
  GI50: 3.98 nM
UACC-257
  GI50: 4.27 nM
SF-295
  GI50: 0.123 nM
U-251
  GI50: 0.182 nM
HCT-116
  GI50: 0.692 nM
OVCAR-5
  GI50: 13.2 nM
[4]
  GI50: 0.355 nM
SN12C
  GI50: 295 nM
MDA-N
  GI50: 1.86 nM
OVCAR-4
  GI50: 38.9 nM
M14
  GI50: 0.955 nM
SK-MEL-28
  GI50: 0.617 nM
Malme-3M
  GI50: 8.13 nM
MDA-MB-231
  GI50: 1.2 nM
T47D
  GI50: 245 nM
SF-268
  GI50: 1.1 nM
HOP-92
  GI50: 0.661 nM
CAKI-1
  GI50: 1.55 nM
XF498
  GI50: 0.724 nM
SK-MEL-5
  GI50: 2.34 nM
M19-MEL
  GI50: 617 nM
A549
  GI50: 0.513 nM
LOX IMVI
  GI50: 0.324 nM
NCI-H522
  GI50: 120 nM
MDA-MB-435
  GI50: 0.813 nM
K562
  GI50: 0.617 nM
SK-MEL-2
  GI50: 1.1 nM
COLO 205
  GI50: 1.55 nM
HOP-18
  GI50: 72.4 nM
OVCAR-8
  GI50: 60.3 nM
BT-549
  GI50: 0.759 nM
HCT-15
  GI50: 4.07 nM
SNB-78
  GI50: 0.776 nM
[5]
  GI50: 0.309 nM
NCI/ADR-RES
  GI50: 69.2 nM
[6]
  GI50: 0.166 nM
[7]
  GI50: 95.5 nM
MCF7
  GI50: 0.355 nM
DLD-1
  GI50: 41.7 nM
RPMI-8226
  GI50: 0.107 nM
DMS-273
  GI50: 0.11 nM
RXF 393
  GI50: 0.1 nM
SF-539
  GI50: 0.151 nM
UACC-62
  GI50: 0.316 nM
[8]
  GI50: 1.41 nM
DU-145
  GI50: 53.7 nM
OVCAR-3
  GI50: 70.8 nM

## C[C@@H]1[C@]2(O[C@H]3C=C4[C@@H]5CC[C@H]6Cc7nc8c(nc7C[C@]6(C)[C@H]5C[C@@H](O)[C@]4(C)[C@]31O)C[C@@H]1CC[C@H]3C4=CC[C@@H]5[C@H](C)[C@@]6(OC[C@]45C(=O)C[C@]3(O)[C@@]1(C)C8)OC(C)(C)C[C@H]6O)O[C@](C)(CO)C[C@H]2O [CEPHALOSTATIN 2]
HT-29
  GI50: 0.912 nM
SNB-75
  GI50: 0.1 nM
SR
  GI50: 0.135 nM
[1]
  GI50: 20.4 nM
SNB-19
  GI50: 2.4 nM
SW-620
  GI50: 0.174 nM
NCI-H460
  GI50: 0.126 nM
HOP-62
  GI50: 0.105 nM
NCI-H322M
  GI50: 28.2 nM
KM-20L2
  GI50: 0.661 nM
[2]
  GI50: 0.138 nM
[3]
  GI50: 0.141 nM
NCI-H23
  GI50: 0.708 nM
CCRF-CEM
  GI50: 0.126 nM
SK-OV-3
  GI50: 0.457 nM
EKVX
  GI50: 6.17 nM
MOLT-4
  GI50: 0.12 nM
ACHN
  GI50: 2.57 nM
NCI-H226
  GI50: 0.141 nM
UO-31
  GI50: 1.18 nM
KM12
  GI50: 0.371 nM
IGROV-1
  GI50: 2.57 nM
UACC-257
  GI50: 0.912 nM
SF-295
  GI50: 0.1 nM
U-251
  GI50: 0.112 nM
HCT-116
  GI50: 0.295 nM
OVCAR-5
  GI50: 14.1 nM
[4]
  GI50: 0.1 nM
SN12C
  GI50: 105 nM
OVCAR-4
  GI50: 17 nM
M14
  GI50: 0.219 nM
SK-MEL-28
  GI50: 0.234 nM
Malme-3M
  GI50: 2.95 nM
SF-268
  GI50: 0.195 nM
HOP-92
  GI50: 0.105 nM
CAKI-1
  GI50: 0.575 nM
XF498
  GI50: 0.1 nM
SK-MEL-5
  GI50: 0.724 nM
M19-MEL
  GI50: 331 nM
A549
  GI50: 0.295 nM
LOX IMVI
  GI50: 0.151 nM
NCI-H522
  GI50: 0.794 nM
SK-MEL-2
  GI50: 0.288 nM
COLO 205
  GI50: 0.617 nM
HOP-18
  GI50: 14.4 nM
OVCAR-8
  GI50: 200 nM
HCT-15
  GI50: 2.34 nM
SNB-78
  GI50: 0.251 nM
[6]
  GI50: 0.11 nM
[7]
  GI50: 74.1 nM
DLD-1
  GI50: 70.8 nM
RPMI-8226
  GI50: 0.1 nM
DMS-273
  GI50: 0.1 nM
RXF 393
  GI50: 0.1 nM
SF-539
  GI50: 0.1 nM
UACC-62
  GI50: 0.141 nM
[8]
  GI50: 0.339 nM
OVCAR-3
  GI50: 347 nM
